Measured values: patent US6642271B2, “Potentiating compounds” (Ardenia Investments, Ltd., priority 2001, dated 2003)
“And” between values parts separate entries of the source, which are not always exact repeats. Identical values can stand only once.

Key:
[1] = Solubility of compounds and formulations; type: physicochemical
Method: The obtained solution can be stored for at least three months at low temperatures, without noticeable change in the properties of compound (I-VI). Moreover, the formulation retains its cytotoxic effects during prolonged storage. Before use, the solution is evaporated in vacuo to yield a waxy solid which is dissolved in saline or other commonly used vehicle for intravenous infusion to a patient. […] An ethanol solution is prepared of one of N-(all-trans-Retinoyl)-L-cysteic acid (I), N-(13-cis-Retinoyl)-L-cysteic acid (11), N-(all-trans-Retinoyl)-L-homocysteic acid (III), N-(13-cis-Retinoyl)-L-homocysteic acid (IV), N-(all-trans-Retinoyl)-L-cysteinesulfinic acid (V), or N-(13-cis-Retinoyl)-L-cysteinesulfinic acid (VI). The obtained solution is evaporated in vacuo to give waxy solid, whereupon Taxol® is added, dissolving the waxy solid. […]

[2] = test system: human breast adenocarcinoma MDA-MB-231 cell line; experiment: Cytotoxicity: cell growth inhibition in cultures, viable cells counted by trypan blue exclusion; type: cell-based
Method: The cell line was propagated by cultivation in Nunclon 25 cm^2 flasks (Nunc A/S, Denmark) in Minimum Essential Medium Eagle (MEM), containing antibiotics and supplemented with 10% (v/v) fetal bovine serum (FBS) (Sigma, St. Louis, Mo., USA). The cultures were maintained in growth medium at 37° C. in a humidified atmosphere, 95% air and 5% CO2.
A suspension of tumour cells (60×10^3 cells/mL) was prepared in MEM with 5% FBS and antibiotics. Cell suspension (200 μL) was seeded in wells of Nunclon 96-microwell plates (Nunc A/S, Denmark) at a density of 12×10^3 cell/well. The solutions of the drugs to be tested were added to the cultures on day 0 or day 1 in volumes of 2 μL. In all cases the cells were incubated for 3 days.
At the end of the incubation period, adherent cells were detached by trypsinization and the number of viable cells was counted using trypan blue dye exclusion test and a hemocytometer.
All experiments were performed at least twice and the cells counts were done in triplicate for each drug concentration. Each control and test series consisted of 6-8 cultures. The results are expressed as mean cell number ±SD and the differences between control and test series were evaluated by means of Student's t-test. The cytotoxicity of each tested drug was evaluated by the extent of cell growth inhibition. The Cell growth inhibition was evaluated as follows:
Cell growth inhibition, %=- - - ×100

SMILES: CC1=C(/C=C/C(C)=C/C=C/C(C)=C/C(=O)N[C@@H](CCS(=O)(=O)O)C(=O)O)C(C)(C)CCC1 [Compound III, N-(all-trans-Retinoyl)-L-homocysteic acid]
- solubility in the commercially available Taxol® preparation [1]: excellent solubility
- solubility in solvents ([1]; sodium salts): also dissolved in methanol and some methanol containing mixtures
- inhibition at 0.04 µM ([2]; Homo sapiens, MDA-MB-231, sodium salt in saline, final 4 × 10^−8 mol/L, day 1, three days): 32.8%
- inhibition at 1 µM ([2]; Homo sapiens, MDA-MB-231, sodium salt in saline, final 10^−6 mol/L (top of range 10^−11 M to 10^−6 M), day 1, three days): 36.1%
- inhibition at 0.1 µM ([2]; Homo sapiens, MDA-MB-231, sodium salt in saline, final 10^−7 mol/L, day 1, three days): 34.4%
- inhibition at 0.01 µM ([2]; Homo sapiens, MDA-MB-231, sodium salt in saline, final 10^−8 mol/L, day 1, three days): 25.8%
- inhibition at 0.001 µM ([2]; Homo sapiens, MDA-MB-231, sodium salt in saline, final 10^−9 mol/L, day 1, three days): 19.7%
- inhibition at 0.0001 µM ([2]; Homo sapiens, MDA-MB-231, sodium salt in saline, final 10^−10 mol/L, day 1, three days): 15.5%
- inhibition at 10 pM ([2]; Homo sapiens, MDA-MB-231, sodium salt of the compound dissolved in saline (1 mg/ml), final concentration 10^−11 mol/L, day 1, three days): 16.9%
- Cell growth inhibition % Formulation ([2]; compound/paclitaxel formulations in saline): close to 60%
- Cell growth inhibition % OF W/SAB ([2]; dried compound/paclitaxel mixed-micellar system (OF), freeze-dried as water solution, reconstituted with 0.05 M sodium acetate buffer): close to 62%
- Cell growth inhibition % OF SAB/W ([2]; dried compound/paclitaxel mixed-micellar system (OF), freeze-dried in 0.05 M sodium acetate buffer, reconstituted with water): close to 63%
- number of living cells ([2]; sodium salt in saline, final 4 × 10^−8 mol/L, day 1, three days): 36.5 ± 2.08 × 10^3
- cell growth inhibition ([2]; sodium salt in saline, final 10^−6 mol/L (top of range 10^−11 M to 10^−6 M), day 1, three days): ~35%
- number of living cells ([2]; sodium salt in saline, final 10^−6 mol/L, day 1, three days): 34.7 ± 1.52 × 10^3
- number of living cells ([2]; sodium salt in saline, final 10^−7 mol/L, day 1, three days): 35.6 ± 1.68 × 10^3
- number of living cells ([2]; sodium salt in saline, final 10^−8 mol/L, day 1, three days): 40.3 ± 3.36 × 10^3
- number of living cells ([2]; sodium salt in saline, final 10^−9 mol/L, day 1, three days): 43.6 ± 2.57 × 10^3
- number of living cells ([2]; sodium salt in saline, final 10^−10 mol/L, day 1, three days): 45.9 ± 2.84 × 10^3
- number of living cells ([2]; sodium salt of the compound dissolved in saline (1 mg/ml), final concentration 10^−11 mol/L, day 1, three days): 45.1 ± 3.51 × 10^3

SMILES: CC(=O)O[C@H]1C(=O)[C@@]2(C)[C@H]([C@H](OC(=O)c3ccccc3)[C@]3(O)C[C@H](OC(=O)[C@H](O)[C@@H](NC(=O)c4ccccc4)c4ccccc4)C(C)=C1C3(C)C)[C@]1(OC(C)=O)CO[C@@H]1C[C@@H]2O [Paclitaxel, reference compound]
- number of living cells ([2]; 8 × 10^−9 mol/L of paclitaxel (formulation: plus 4 × 10^−8 mol/L of compound, molar ratio 1:5), added day 0, three days): 15.5 ± 1.63 × 10^3 and 26.3 ± 1.96 × 10^3
- cell growth inhibition ([2]; at concentrations close to the IC50 concentration): ~46%
- cell growth inhibition ([2]; drug alone, 10 nM paclitaxel, added day 1, three days of cultivation, positive control of molar-ratio experiments): 46.1% and 44.3%
